Test results taken from patent US20250353848A1, “HETEROCYCLIC PAD4 INHIBITORS” (Celgene Corporation, priority 2022, published 2025).

Biological target: hPAD4 enzyme (Homo sapiens, UniProt Q9UM07)
Experiment: RFMS Assay 1 (rapid-fire mass spectrum PAD4 inhibition assay, BAEE substrate)
Type: biochemical
Details: 5 nM hPAD4 enzyme, 250 μM BAEE, 30 mins compound and enzyme preincubation at 37° C., 90 min enzyme/substrate reaction
Method: Compounds were solubilized in 100% DMSO to achieve a 10 mM compound concentration. Compound stock solutions were stored at RT. A series of dilutions were prepared in DMSO and mixed 8 times with 20 μL mixing volume. Final top concentration of compound in the assay is 50 μM. Final assay conditions were as follows: • Reaction volume: 26 μl • Assay buffer: 25 mM hepes, pH 7.5, 5 mM NaCl, 1 mM DTT, 0.2 mg/ml BSA, 0.01% CHAPS, 50 μM Calcium, and 5 μM TPEN • Final concentrations: 5 nM hPAD4 enzyme, 250 μM BAEE, and 0.5% DMSO • Total incubation time: 30 mins compound and enzyme preincubation at 37° C., 90 min enzyme/substrate reaction, 30 min reaction with phenyl glyoxal at 37° C. • Stop solution: 40 μl 5% TCA in ACN
0.13 μL of compound solution was added to 13 μL of 10 nM PAD4 in assay buffer. After 30 min 13 μl of 500 μM of BAEE was added in 25 mM hepes, pH 7.5, 5 mM NaCl, 1 mM DTT, 0.2 mg/ml BSA, 0.01% CHAPS, 50 µM Calcium, […] was added and the reaction incubated for 90 min at 37° C. The enzymatic reaction was quenched by addition of 15 μl of 6.1N TCA, 100% Final Concentration is 20%, 35 μl of 8.5 mM phenyl glyoxal (final concentration 4 mM) is then added and the reaction is incubated for 30 min at 37° C.
After 30 minutes the plates are spun down to remove all precipitate. The enzyme reaction was quenched with an equal volume of methanol containing internal standard (modified citrulline). Samples were loaded onto the Rapid Fire RF300 system (Agilent) wherein they were first sipped for 1000 ms and then directly loaded to a C18 separations cartridge using a mixture of acetonitrile containing 0.01% formic acid for 3000 ms desalting. The flow rate of the mobile phase was 1.5 ml/min. Once the samples were eluted from the cartridge, a mobile phase of acetonitrile containing 0.01% formic acid was used to move the samples into the mass spectrometer for 4000 ms at a flow rate of 1.25 ml/min/Sciex AP15500 triple quadrupole mass spectrometer (Applied Biosystems) equipped with ESI was used to analyze the peptidyl citrulline and internal standard ions.
MRM transition of product and internal standard were monitored at m/z 424.5 to 350.4 and m/z 293 to 247 respectively. The dwell time for each transition was set at 200 ms, and the ESI voltage was used at 5500 with a source temperature of 400° C. Extracted ion peaks for each transition were integrated using the Rapid Fire Integrator software. Peak area of analyte was normalized with internal standard.).

Chain of hPAD4 enzyme (Q9UM07 whole entry): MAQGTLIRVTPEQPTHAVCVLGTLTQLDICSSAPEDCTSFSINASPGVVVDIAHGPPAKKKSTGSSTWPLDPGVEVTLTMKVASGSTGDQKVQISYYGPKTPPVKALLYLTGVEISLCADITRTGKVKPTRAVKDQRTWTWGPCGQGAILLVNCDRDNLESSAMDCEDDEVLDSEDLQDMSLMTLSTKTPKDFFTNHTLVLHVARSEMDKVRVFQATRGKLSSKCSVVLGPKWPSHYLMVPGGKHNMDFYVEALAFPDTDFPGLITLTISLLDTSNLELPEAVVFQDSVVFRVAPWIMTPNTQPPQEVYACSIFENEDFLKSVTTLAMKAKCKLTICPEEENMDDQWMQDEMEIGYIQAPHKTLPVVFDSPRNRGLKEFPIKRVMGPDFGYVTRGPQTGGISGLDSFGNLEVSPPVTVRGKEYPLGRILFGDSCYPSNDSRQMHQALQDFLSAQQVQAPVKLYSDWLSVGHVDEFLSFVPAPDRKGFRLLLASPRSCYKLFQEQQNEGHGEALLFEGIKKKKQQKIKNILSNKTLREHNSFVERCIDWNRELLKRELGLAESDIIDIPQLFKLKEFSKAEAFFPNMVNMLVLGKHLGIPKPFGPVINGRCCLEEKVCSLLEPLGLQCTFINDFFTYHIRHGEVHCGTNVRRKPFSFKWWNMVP

SMILES | IC50
CC(C(F)Oc1cccc2cc(-c3nc4cc5c(nc4n3C)CCN(C[C@H](N)CF)C5=O)n(CC3CC3)c12)n1ccnc1 (single isomer, unassigned) [Example 78a] | 11 to 100 nM
CC(C(F)Oc1cccc2cc(-c3nc4cc5c(nc4n3C)CCN(C[C@H](N)CF)C5=O)n(CC3CC3)c12)n1ccnc1 (single isomer, unassigned) [Example 78b] | ≤ 10 nM
CC(C(F)Oc1cccc2cc(-c3nc4cc5c(nc4n3C)CCN(C[C@H](N)CF)C5=O)n(CC3CC3)c12)n1ccnc1 (single isomer, unassigned) [Example 78c] | 11 to 100 nM
CC(C(F)Oc1cccc2cc(-c3nc4cc5c(nc4n3C)CCN(C[C@H](N)CF)C5=O)n(CC3CC3)c12)n1ccnc1 (single isomer, unassigned) [Example 78d] | 11 to 100 nM
Cn1c(-c2cc3cccc(OCC(F)n4ccnc4)c3n2CC2CC2)nc2cc3c(nc21)CCN(C[C@H](N)CF)C3=O (single isomer, unassigned) [Example 79a] | 11 to 100 nM
Cn1c(-c2cc3cccc(OCC(F)n4ccnc4)c3n2CC2CC2)nc2cc3c(nc21)CCN(C[C@H](N)CF)C3=O (single isomer, unassigned) [Example 79b] | 11 to 100 nM
COc1cccc2cc(-c3nc4cc5c(nc4n3C)CCN(C[C@H](N)CF)C5=O)n(CC(F)F)c12 [Example 3, (S)-7-(2-amino-3-fluoropropyl)-2-(1-(2,2-difluoroethyl)-7-methoxy-1H-indol-2-yl)-3-methyl-3,5,6,7-tetrahydro-8H-imidazo[4,5-b][1,6]naphthyridin-8-one] | 101 to 500 nM
COc1cccc2cc(-c3nc4cc5c(nc4n3C)CCN(C[C@H](N)CF)C5=O)n(CC3CC3(F)F)c12 (stereo partly drawn) [Example 4, 7-((S)-2-amino-3-fluoropropyl)-2-(1-((2,2-difluorocyclopropyl)methyl)-7-methoxy-1H-indol-2-yl)-3-methyl-3,5,6,7-tetrahydro-8H-imidazo[4,5-b][1,6]naphthyridin-8-one] | 101 to 500 nM
COc1cccc2cc(-c3nc4cc5c(nc4n3C)CCN(C[C@H](N)CF)C5=O)n(CCOC(F)(F)F)c12 [Example 5, (S)-7-(2-amino-3-fluoropropyl)-2-(7-methoxy-1-(2-(trifluoromethoxy)ethyl)-1H-indol-2-yl)-3-methyl-3,5,6,7-tetrahydro-8H-imidazo[4,5-b][1,6]naphthyridin-8-one] | 101 to 500 nM
COc1cccc2cc(-c3nc4cc5c(nc4n3C)CCN(C[C@H](N)CF)C5=O)n(CCOC(F)F)c12 [Example 6, (S)-7-(2-amino-3-fluoropropyl)-2-(1-(2-(difluoromethoxy)ethyl)-7-methoxy-1H-indol-2-yl)-3-methyl-3,5,6,7-tetrahydro-8H-imidazo[4,5-b][1,6]naphthyridin-8-one] | 101 to 500 nM
COc1nccc2cc(-c3nc4cc5c(nc4n3C)CCN(C[C@H](N)CF)C5=O)n(CC(F)(F)F)c12 [Example 21, (S)-7-(2-amino-3-fluoropropyl)-2-(7-methoxy-1-(2,2,2-trifluoroethyl)-1H-pyrrolo[2,3-c]pyridin-2-yl)-3-methyl-3,5,6,7-tetrahydro-8H-imidazo[4,5-b][1,6]naphthyridin-8-one] | > 1000 nM
COc1cccc2cc(-c3nc4cc5c(nc4n3C)CCN(C[C@@H](C)N)C5=O)n(Cc3ncco3)c12 [Example 25, (R)-7-(2-aminopropyl)-2-(7-methoxy-1-(oxazol-2-ylmethyl)-1H-indol-2-yI)-3-methyl-3,5,6,7-tetrahydro-8H-imidazo[4,5-b][1,6]naphthyridin-8-one] | 101 to 500 nM
COc1cccc2cc(-c3nc4cc5c(nc4n3C)CCN(C[C@H]3COCCN3)C5=O)n(CCOC(F)F)c12 [Example 28, (S)-2-(1-(2-(difluoromethoxy)ethyl)-7-methoxy-1H-indol-2-yl)-3-methyl-7-(morpholin-3-ylmethyl)-3,5,6,7-tetrahydro-8H-imidazo[4,5-b][1,6]naphthyridin-8-one] | 501 to 1000 nM
CC(=O)N1CCC(c2cccc3cc(-c4nc5cc6c(nc5n4C)CCN(C[C@H](N)CF)C6=O)n(CC4CC4)c23)CC1 [Example 29, (S)-2-(7-(1-acetylpiperidin-4-yl)-1-(cyclopropylmethyl)-1H-indol-2-yl)-7-(2-amino-3-fluoropropyl)-3-methyl-3,5,6,7-tetrahydro-8H-imidazo[4,5-b][1,6]naphthyridin-8-one] | 101 to 500 nM
CO[C@H](C)C(=O)N1CCC(c2cccc3cc(-c4nc5cc6c(nc5n4C)CCN(C[C@H](N)CF)C6=O)n(CC4CC4)c23)CC1 [Example 31, 7-((S)-2-amino-3-fluoropropyl)-2-(1-(cyclopropylmethyl)-7-(1-((R)-2-methoxypropanoyl)piperidin-4-yl)-1H-indol-2-yl)-3-methyl-3,5,6,7-tetrahydro-8H-imidazo[4,5-b][1,6]naphthyridin-8-one] | 11 to 100 nM
C[C@H](O)C(=O)N1CCC(c2cccc3cc(-c4nc5cc6c(nc5n4C)CCN(C[C@H](N)CF)C6=O)n(CC4CC4)c23)CC1 [Example 32, 7-((S)-2-amino-3-fluoropropyl)-2-(1-(cyclopropylmethyl)-7-(1-((S)-2-hydroxypropanoyl)piperidin-4-yl)-1H-indol-2-yl)-3-methyl-3,5,6,7-tetrahydro-8H-imidazo[4,5-b][1,6]naphthyridin-8-one] | 101 to 500 nM
COC(=O)N1CC[C@@H](Oc2cccc3cc(-c4nc5cc6c(nc5n4C)CCN(C[C@H](N)CF)C6=O)n(CC4CC4)c23)C1 [Example 40, methyl (R)-3-((2-(7-((S)-2-amino-3-fluoropropyl)-3-methyl-8-oxo-5,6,7,8-tetrahydro-3H-imidazo[4,5-b][1,6]naphthyridin-2-yl)-1-(cyclopropylmethyl)-1H-indol-7-yl)oxy)pyrrolidine-1-carboxylate] | 11 to 100 nM
Cn1c(-c2cc3cccc(OCCc4cn[nH]c4)c3n2CC2CC2)nc2cc3c(nc21)CCN(C[C@H](N)CF)C3=O [Example 50, (S)-2-(7-(2-(1H-pyrazol-4-yl)ethoxy)-1-(cyclopropylmethyl)-1H-indol-2-yl)-7-(2-amino-3-fluoropropyl)-3-methyl-3,5,6,7-tetrahydro-8H-imidazo[4,5-b][1,6]naphthyridin-8-one] | ≤ 10 nM

The remaining lines, values ahead:

IC50 | SMILES
≤ 10 nM | CC(COc1cccc2cc(-c3nc4cc5c(nc4n3C)CCN(C[C@H](N)CF)C5=O)n(CC3CC3)c12)c1cccnc1 (single isomer, unassigned) [Example 45a]
≤ 10 nM | CC(COc1cccc2cc(-c3nc4cc5c(nc4n3C)CCN(C[C@H](N)CF)C5=O)n(CC3CC3)c12)c1cccnc1 (single isomer, unassigned) [Example 45b]
101 to 500 nM | Cn1c(-c2cc3cccc(OCC(O)c4cnco4)c3n2CC2CC2)nc2cc3c(nc21)CCN(C[C@H](N)CF)C3=O (single isomer, unassigned) [Example 61a]
101 to 500 nM | Cn1c(-c2cc3cccc(OCC(O)c4cnco4)c3n2CC2CC2)nc2cc3c(nc21)CCN(C[C@H](N)CF)C3=O (single isomer, unassigned) [Example 61b]
≤ 10 nM | Cn1c(-c2cc3cccc(OC(F)Cn4cnc(F)c4)c3n2CC2CC2)nc2cc3c(nc21)CCN(C[C@H](N)CF)C3=O (single isomer, unassigned) [Example 73a]
≤ 10 nM | Cn1c(-c2cc3cccc(OC(F)Cn4cnc(F)c4)c3n2CC2CC2)nc2cc3c(nc21)CCN(C[C@H](N)CF)C3=O (single isomer, unassigned) [Example 73b]
11 to 100 nM | Cn1c(-c2cc3cccc(OC(C)(F)Cn4ccnc4)c3n2CC2CC2)nc2cc3c(nc21)CCN(C[C@H](N)CF)C3=O (single isomer, unassigned) [Example 76a]
11 to 100 nM | Cn1c(-c2cc3cccc(OC(C)(F)Cn4ccnc4)c3n2CC2CC2)nc2cc3c(nc21)CCN(C[C@H](N)CF)C3=O (single isomer, unassigned) [Example 76b]
11 to 100 nM | COCCn1c(-c2nc3cc4c(nc3n2C)CCN(C[C@H](N)CF)C4=O)cc2cccc(OC(F)Cn3ccnc3)c21 (single isomer, unassigned) [Example 77a]
11 to 100 nM | COCCn1c(-c2nc3cc4c(nc3n2C)CCN(C[C@H](N)CF)C4=O)cc2cccc(OC(F)Cn3ccnc3)c21 (single isomer, unassigned) [Example 77b]
